The supplement of paper PMC11061612

How the values were obtained:
[1] = test system: SR (Other Blood Carcinomas); assay: Bliss excess, mean over the matrix (fraction); higher = more synergy
Summary of the method: (§1)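 Cell lines in DMEM/F12 or RPMI with 10% FBS were plated in 1536-well plates, held 24 hours at 37°C, 5% CO2, then given two-drug dose matrices for 72 hours (DMSO typically 0.2%). Viability was read by CellTiter-Glo 2.0 luminescence and scaled as inhibition from 0 (vehicle wells) to 1 (blank wells). Combination Emax is the second-highest inhibition in the matrix; Bliss excess is observed combination effect minus expected EA + EB − EA·EB, EA and EB being single-agent effects.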

WIL2-NS (Non-Cancerous) [2] = assay: as above
Summary of the method: as §1

WM-115 (Melanoma) [3] = assay: as above
Summary of the method: as §1

ES1 (Ewing's Sarcoma) [4] = assay: as above
Summary of the method: as §1

[5] = test system: SW1417 (Colorectal Carcinoma); assay: as above
Summary of the method: as §1

[6] = test system: NCI-H1792 (Lung Adenocarcinoma); assay: as above
Summary of the method: as §1

[7] = test system: SW837 (Colorectal Carcinoma); assay: as above
Summary of the method: as §1

ES8 (Ewing's Sarcoma) [8] = assay: as above
Summary of the method: as §1

[9] = test system: K-562 (Chronic Myelogenous Leukemia); assay: as above
Summary of the method: as §1

[10] = test system: MKN28 (Gastric Carcinoma); assay: as above
Summary of the method: as §1

[11] = test system: DND-41 (T-Lymphoblastic Leukemia); assay: as above
Summary of the method: as §1

[12] = test system: BFTC-905 (Bladder Carcinoma); assay: as above
Summary of the method: as §1

[13] = test system: GR-ST (B-Lymphoblastic Leukemia); assay: as above
Summary of the method: as §1

[14] = test system: L-540 (Hodgkin's Lymphoma); assay: as above
Summary of the method: as §1

[15] = test system: CAMA-1 (Breast Carcinoma); assay: as above
Summary of the method: as §1

NCI-H2818 (Mesothelioma) [16] = assay: as above
Summary of the method: as §1

[17] = test system: BL-41 (Burkitt's Lymphoma); assay: as above
Summary of the method: as §1

[18] = test system: SR (Other Blood Carcinomas); assay: combination Emax (second highest fraction inhibited in the dose matrix, 72 h); higher = more inhibition; extreme values may be limits of the assay
Summary of the method: as §1

WIL2-NS (Non-Cancerous) [19] = assay: as above
Summary of the method: as §1

WM-115 (Melanoma) [20] = assay: as above
Summary of the method: as §1

ES1 (Ewing's Sarcoma) [21] = assay: as above
Summary of the method: as §1

[22] = test system: SW1417 (Colorectal Carcinoma); assay: as above
Summary of the method: as §1

[23] = test system: NCI-H1792 (Lung Adenocarcinoma); assay: as above
Summary of the method: as §1

[24] = test system: SW837 (Colorectal Carcinoma); assay: as above
Summary of the method: as §1

ES8 (Ewing's Sarcoma) [25] = assay: as above
Summary of the method: as §1

[26] = test system: K-562 (Chronic Myelogenous Leukemia); assay: as above
Summary of the method: as §1

[27] = test system: MKN28 (Gastric Carcinoma); assay: as above
Summary of the method: as §1

[28] = test system: DND-41 (T-Lymphoblastic Leukemia); assay: as above
Summary of the method: as §1

[29] = test system: BFTC-905 (Bladder Carcinoma); assay: as above
Summary of the method: as §1

[30] = test system: GR-ST (B-Lymphoblastic Leukemia); assay: as above
Summary of the method: as §1

[31] = test system: L-540 (Hodgkin's Lymphoma); assay: as above
Summary of the method: as §1

[32] = test system: CAMA-1 (Breast Carcinoma); assay: as above
Summary of the method: as §1

NCI-H2818 (Mesothelioma) [33] = assay: as above
Summary of the method: as §1

[34] = test system: BL-41 (Burkitt's Lymphoma); assay: as above
Summary of the method: as §1
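Wherever Bliss excess, mean over the matrix is given: after 72 h of two-drug dosing.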

Compound	Bliss excess [1]	Bliss excess (WIL2-NS (Non-Cancerous) [2])	Bliss excess (WM-115 (Melanoma) [3])	Bliss excess (ES1 (Ewing's Sarcoma) [4])	Bliss excess [5]	Bliss excess [6]	Bliss excess [7]	Bliss excess (ES8 (Ewing's Sarcoma) [8])	Bliss excess [9]	Bliss excess [10]	Bliss excess [11]	Bliss excess [12]	Bliss excess [13]	Bliss excess [14]	Bliss excess [15]	Bliss excess (NCI-H2818 (Mesothelioma) [16])	Bliss excess [17]	combination Emax [18]	combination Emax (WIL2-NS (Non-Cancerous) [19])	combination Emax (WM-115 (Melanoma) [20])	combination Emax (ES1 (Ewing's Sarcoma) [21])	combination Emax [22]	combination Emax [23]	combination Emax [24]	combination Emax (ES8 (Ewing's Sarcoma) [25])	combination Emax [26]	combination Emax [27]	combination Emax [28]	combination Emax [29]	combination Emax [30]	combination Emax [31]	combination Emax [32]	combination Emax (NCI-H2818 (Mesothelioma) [33])	combination Emax [34]
CS(=O)(=O)CCNCc1ccc(-c2ccc3ncnc(Nc4ccc(OCc5cccc(F)c5)c(Cl)c4)c3c2)o1 [Lapatinib] + Cn1cnc2c(F)c(Nc3ccc(Br)cc3Cl)c(C(=O)NOCCO)cc21 [Selumetinib] (first compound max 10 µM, 7x7, partner max 10 µM)	0.0398	0.0098	0.0205	0.0071	0.0847	0.0012	0.0194	0.036	-0.0324	0.0057	0.0178	0.0619	-0.03	-0.0147	-0.0009	-0.0295	-0.0346	0.707	0.321	0.531	0.452	0.698	0.527	0.732	0.555	0.564	0.545	0.871	0.804	0.969	0.511	0.187	0.28	0.907
O=C(c1cc(Cc2n[nH]c(=O)c3ccccc23)ccc1F)N1CCN(C(=O)C2CC2)CC1 [Olaparib] + CC1(C)CCC(CN2CCN(c3ccc(C(=O)NS(=O)(=O)c4ccc(NCC5CCOCC5)c([N+](=O)[O-])c4)c(Oc4cnc5[nH]ccc5c4)c3)CC2)=C(c2ccc(Cl)cc2)C1 [Venetoclax] (first compound max 10 µM, 7x7, partner max 1 µM)	0.0961	0.0261	-0.052	0.0271	-0.0223	-0.0302	-0.0548	-0.0224	-0.0133	-0.0514	0.0243	-0.0334	-0.0349	0.0188	-0.0106	-0.0238	0.0183	0.567	0.46	0.241	0.841	0.124	0.109	0.112	0.964	0.172	0.105	0.29	0.193	0.526	0.558	0.211	0.158	0.318
O=C(c1cc(Cc2n[nH]c(=O)c3ccccc23)ccc1F)N1CCN(C(=O)C2CC2)CC1 [Olaparib] + CN(CC[C@H](CSC1=CC=CC=C1)NC2=C(C=C(C=C2)S(=O)(=O)NC(=O)C3=CC=C(C=C3)N4CCC(CC4)[C@H](C5=CC=CC=C5C6=CC=C(C=C6)Cl)O)S(=O)(=O)C(F)(F)F)CCO [AZD4320] (first compound max 10 µM, 7x7, partner max 1 µM)	0.146	0.0107	-0.0631	0.0333	-0.0183	-0.0399	-0.053	0.0463	-0.0155	-0.0269	-0.0067	-0.0089	0.0012	-0.0017	-0.0317	-0.0504	0.0193	0.709	0.509	0.37	0.918	0.651	0.154	0.197	0.982	0.253	0.147	1	0.346	0.462	0.618	0.278	0.186	0.417
O=C(c1cc(Cc2n[nH]c(=O)c3ccccc23)ccc1F)N1CCN(C(=O)C2CC2)CC1 [Olaparib] + COc1nnc2ccc(N3CCC(c4ccc(OCCN5CCN(C)C(=O)[C@H]5C)cc4)CC3)nn12 [AZD5153] (first compound max 10 µM, 7x7, partner max 1 µM)	0.0315	-0.0128	-0.135	-0.0392	-0.0096	-0.0554	-0.0656	0.0168	-0.0063	-0.056	0.0275	-0.0614	-0.0519	-0.0841	-0.0417	-0.0205	-0.0634	0.626	0.818	0.295	0.882	0.448	0.527	0.484	0.966	0.412	0.362	0.69	0.6	0.776	0.619	0.484	0.325	0.648
O=C(c1cc(Cc2n[nH]c(=O)c3ccccc23)ccc1F)N1CCN(C(=O)C2CC2)CC1 [Olaparib] + Cc1c2c(nn1C)CSCc1cc(n(C)n1)CSc1cc(c3ccccc3c1)OCCCc1c(C(=O)O)n(C)c3c-2c(Cl)ccc13 [AZD5991] (first compound max 10 µM, 7x7, partner max 1 µM)	0.0384	-0.0181	-0.0678	0.0139	-0.0315	-0.041	-0.0524	-0.0085	-0.0125	-0.0498	-0.0059	-0.0279	-0.0352	0.0143	0.0094	-0.0446	0.0012	0.943	0.299	0.146	0.98	0.0852	0.201	0.136	0.958	0.0695	0.0875	0.174	0.178	0.515	1	0.706	0.169	1
N#Cc1cnc(Nc2cc(NC[C@H]3CNCCO3)c(C(F)(F)F)cn2)cn1 [SRA737] + C=CCn1c(=O)c2cnc(Nc3ccc(N4CCN(C)CC4)cc3)nc2n1-c1cccc(C(C)(C)O)n1 [AZD1775] (first compound max 10 µM, partner max 1 µM)	0.029	0.102	-0.0524	0.118	0.0127	0.0434	0.0157	0.144	0.0463	0.0204	0.104	0.0526	0.0215	0.0404	0.0672	-0.0129	0.0924	1	0.968	0.356	0.993	0.537	0.864	0.725	0.884	0.967	0.504	0.949	0.777	0.864	0.921	0.442	0.299	1
N#Cc1cnc(Nc2cc(NC[C@H]3CNCCO3)c(C(F)(F)F)cn2)cn1 [SRA737] + Nc1ccn([C@@H]2O[C@H](CO)[C@@H](O)C2(F)F)c(=O)n1 [Gemcitabine] (first compound max 10 µM, 7x7, partner max 0.3 µM)	0.0325	-0.0384	-0.0214	0.0419	0.0613	0.0436	0.121	0.0504	0.0559	0.032	-0.0197	0.0034	0.0024	0.0222	0.0294	0.0002	-0.0522	1	0.983	0.501	1	0.685	0.922	0.75	1	0.933	0.575	0.908	0.868	0.871	0.962	0.455	0.473	1
N#Cc1cnc(Nc2cc(NC[C@H]3CNCCO3)c(C(F)(F)F)cn2)cn1 [SRA737] + O=c1[nH]cc(F)c(=O)[nH]1 [5-Fluorouracil] (first compound max 10 µM, 7x7, partner max 20 µM)	-0.0128	0.0182	-0.0753	0.0525	0.0018	0.0523	0.0162	0.0404	-0.0202	0.0222	0.0434	0.0197	-0.0636	-0.0581	0.0209	-0.0232	0.0042	0.959	0.957	0.255	0.982	0.238	0.84	0.497	0.611	0.893	0.381	0.946	0.278	0.817	0.936	0.314	0.239	1
